From US20040248871A1, “Use of lysyl oxidase inhibitors for cell culture and tissue engineering” (priority 2001, published 2004)
Several values for one entry are separate records, joined by “and”; a condition that tells them apart may be missing. Equal values may be shown once.

Experiments:
[1] = tested on: normal human chondrocytes; experiment: Normal human chondrocytes in 3D culture in collagen-GAG-chitosan sponge (immunofluorescence, histology); assay type: cell-based; conditions: 3D culture in sponge, three months
Text: The chondrocytes obtained after ligamentoplasty have been used for the three-dimensional culture in collagen-GAG-chitosan sponge (Collombel et al. 1987)* in the presence or absence of BAPN (FIGS. 7 and 8). * Collombel C., Damour O., Gagneu C., Poinsignon F., Echinard C., Marichy J.: Peau artificielle et son procédé de fabrication. French Patent No. 87-08752 (15th Jun. 1987), European Patent No. 88-420194.8 (14th Jun. 1988).
Nevertheless, human chondrocytes dedifferentiated in terms of the period of culture necessary for their multiplication in culture on plastic, can advantageously be placed in three-dimensional (3D) culture in the presence of βAPN. The placing in 3D culture not being sufficient, in itself, to ensure a return to the cartilage phenotype lost during the 2-dimensional culture in the presence of serum, as was described for 3D cultures in agarose.
3 D culture in sponges of collagen-GAG-chitosan in the presence of serum and βAPN of normal human chondrocytes. The chondrocytes were previously multiplied, and dedifferentiated, in 2D culture on plastic.

Lysyl oxidase = Lysyl oxidase activity assay with tritiated elastin substrate on culture media of chicken embryo chondrocytes; assay type: biochemical
Method: The Lysyl oxidase activity was assayed with 300,000 dpm of labelled elastin on the Lysine, substrate of the enzyme (Shackelton and Hulmes Anal. Biochem. (1990) 185: 359-362). The determination of the presence of Lysyl oxidases in the cultures of chondrocytes is carried out according to the standard methods of immunodecoration of the supports onto which the bands separated from the proteins extracted from the corresponding culture media or from the cell lawns have been transferred.
Lysyl oxidase activities (inhibited by βAPN and assayed by the production of tritiated water) are secreted in the culture media. The specific activity recorded in the media is stronger on the 7th day of culture than on the 13th day. The extracellular matrix being richer in natural collagenic substrates of the Lysyl oxidase activity on the 13th day of culture, it would thus retain the enzyme in the cell lawn.

[2] = tested on: chondrocytes, fibroblasts, keratinocytes; experiment: Toxicity and multiplication of the cells in culture at the standard concentration; assay type: cell-based; conditions: 50 μg/ml
Method: (§1) βAPN (50 μg/ml) is added immediately upon inoculation, to the culture medium which is renewed every 2 days and applied to the cultures of chondrocytes as well as to those of fibroblasts then of keratinocytes during the formation of the reconstructed skin.

[3] = tested on: reconstructed skin (fibroblasts and keratinocytes); experiment: Histology, immunohistology and in situ hybridization of reconstructed skins; assay type: cell-based, human
Text: (§2) The method allowing the formation of the reconstructed skin is that described in the French Patent 87-08252 of the 15th Jun. 1987.
(§3) The support of the reconstructed skin model is constituted by a dermal substrate (DS) with a base of collagen-glycosaminoglycan cross-linked by chitosan according to the technique published by Duplan-Perrat et al (J Invest Dermatol 2000 114:365). Fibroblasts are inoculated the inside of the DS in order to obtain an equivalent dermis. The reconstituted skin (RS) is obtained by inoculating the keratinocytes after 15 days (day 15) of culture in equivalent dermis. The dermal fibroblasts are obtained from explants of human prepuces after dermal-epidermal separation and cultured in monolayer in DMEM medium (Sigma) supplemented by 10% fœtal calf serum, 4 mM L-glutamine, EGF (Austral Biologic) at 10 ng/ml, penicillin at 100 UI/ml, gentamicin at 100 μg/ml and amphotericin B at 1 μg/ml. The keratinocytes are from a human skin biopsy sample after dermal-epidermal separation by trypsination. The cells are inoculated nutritive layers (irradiated fibroblasts) and cultured in DMEM and HAM F12 at 30% supplemented with fœetal calf serum at 10%, EGF at 10 ng/ml, hydrocortisone at 1.6 ng/ml, umulin at 0.12 UI/ml, choleratoxin at 0.1 nM, triiodothyronine at 0.2 μM, adenine at 24 μg/ml, 4 mM L-Glutamine, penicillin at 100 UI/ml, gentamicin at 100 μg/ml and amphotericin B at 1 μg/ml.
A mixture with a base of bovine collagen of type I and III (72%), glycosaminoglycan (8%) cross-linked by chitosan (20%) is poured into 6-well plates. The dermal substrates thus obtained are then frozen at −80° C. and lyophilized. The fibroblasts are inoculated in the dermal substrate, rehydrated and sterilized at a rate of 250,000 cells per cm^2. Keratinocytes are inoculated after 15 days (day 15) at a density of 200,000 to 250,000 cells/cm^2. The reconstructed skins are cultured for 8 days in immersion, in the medium described previously supplemented with 50 μg/ml of vitamin C. […]

[4] = tested on: deep chondrocytes of the cotyloid ligament; experiment: Human cotyloid cartilage chondrocytes in 2D culture on plastic; assay type: cell-based; conditions: hyaluronidase in extraction medium, two weeks, serum
Text: b) The cultures of normal human chondrocytes originate from cartilages taken during hip prosthesis or ligamentoplasty surgery, then subjected to enzymatic digestion. These cartilage biopsies are considered as res nullus.
The chondrocytes extracted from the cotyloid ligament have been used for the two-dimensional culture on plastic in the presence of BAPN: the cultures obtained after enzymatic digestion of the cartilages in the presence or absence of hyaluronidase were compared (FIGS. 4 and 5).
The 24-hour radio-labellings with the 14C proline were carried out on the 2nd, 7th and 14th day of culture in the presence of serum and βAPN (day 2, day 7 and day 14 respectively). The pepsinated extracts of culture medium and cell lawn were subjected to electrophoresis then fluorography.
The superficial areas (even numbers) and deep areas (odd numbers) of the cotyloid cartilage were separated before being subjected to enzymatic digestion in the presence or absence of hyaluronidase.

[5] = tested on: reconstructed skin (fibroblasts and keratinocytes); experiment: Retraction (surface area) of reconstructed skins; assay type: cell-based, human; conditions: for surface area compared to the initial original surface area: 35 days of culture
Text: as §2, §3
A mixture with a base of bovine collagen of type I and III (72%), glycosaminoglycan (8%) cross-linked by chitosan (20%) is poured into 6-well plates. The dermal substrates thus obtained are then frozen at −80° C. and lyophilized. The fibroblasts are inoculated in the dermal substrate, rehydrated and sterilized at a rate of 250,000 cells per cm^2. Keratinocytes are inoculated after 15 days (day 15) at a density of 200,000 to 250,000 cells/cm^2. The reconstructed skins are cultured for 8 days in immersion, in the medium described previously supplemented with 50 μg/ml of vitamin C. Then the reconstructed skins are raised to the air-liquid interface using a simplified culture medium with a DMEM base, supplemented with fœtal calf serum, EGF, hydrocortisone, umulin, L-glutamine, penicillin, gentamicin, and amphotericin B, and ascorbic acid, at the concentrations described above. The reconstructed skins are cultured up to day 60. Samples are taken at day 30 and day 60 for the different analyses.
as §1

SMILES: N#CCCN [βAPN, β-aminopropionitrile]
- intensity of marking of the collagen I [1]: strong decrease
- intensity of marking of the collagen II and of the aggrecan (cartilage markers) [1]: clear increase
- dpm + βAPN (Lysyl oxidase activity assay) (Lysyl oxidase; Experiment 1, substrate no. 1, culture − FCS, + cys, Day 3, caudal chondrocytes, 15% medium P35): 674 dpm and 718 dpm
- dpm + βAPN (Lysyl oxidase activity assay) (Lysyl oxidase; Experiment 2, substrate no. 2, culture + FCS, − cys, Day 7, caudal chondrocytes, 25% medium P35): 5296 dpm and 6210 dpm
- dpm + βAPN (Lysyl oxidase activity assay) (Lysyl oxidase; Experiment 2, substrate no. 2, culture + FCS, − cys, Day 7, cranial chondrocytes, 100% medium P35): 5800 dpm and 6536 dpm
- dpm + βAPN (Lysyl oxidase activity assay) (Lysyl oxidase; Experiment 2, substrate no. 2, culture + FCS, − cys, Day 13, caudal chondrocytes, 75% medium P35): 4344 dpm and 4702 dpm
- dpm + βAPN (Lysyl oxidase activity assay) (Lysyl oxidase; Experiment 2, substrate no. 2, culture + FCS, − cys, Day 13, cranial chondrocytes, 100% medium P35): 4580 dpm and 4618 dpm
- toxicity for the cells [2]: not toxic
- histology of the reconstructed skins ([3]; 50 μg/ml or 200 μg/ml): does not seem to be fundamentally changed
- detection of the LOX and LOXL genes by in situ hybridization ([3]; 50 μg/ml, dermis and epidermis): slight increase
- synthesis of extracellular matrix / colonization of the sponge by the fibroblasts ([3]; dermis of reconstructed skin): increased synthesis of ECM
- preservation of morphology and phenotype (matrix of cartilaginous type, without collagen I) [4]: preserving their morphology and their phenotype
- surface area compared to the initial original surface area ([5]; 50 μg/ml): 50%
- surface area compared to the non-treated control ([5]; 50 μg/ml, after two weeks at the air-liquid interface): do not show any significant difference
- surface area compared to the initial original surface area ([5]; 200 μg/ml): 40%
- surface area compared to the initial original surface area ([5]; 500 μg/ml): 40%
- reduction in surface area compared to original state ([5]; 500 μg/ml, immersed, before raising to the air-liquid interface): 17%
- surface area compared to that of the control ([5]; 200 or 500 μg/ml, after two weeks at the air-liquid interface): significantly greater surface area
- retraction compared to the control ([5]; skins still in immersed culture): significant dose-dependent reduction
